Entries after “also recorded” stand apart in the source; their conditions may differ. Where a name gives a salt, the structure may show the parent alone.
Tests used:
[1] = system: blood platelets; test: Inhibition of blood platelet aggregation (aggregometer, ADP); format: cell-based, human (healthy testees); settings: Platelet, 0.05 h; human PRP, ADP 2 to 4 μM, 3 min incubation, 37° C.; read-out: IC50 (Inhibition of blood platelet aggregation)
Experimental: Compounds according to the invention were tested for their inhibition of clumping together (aggregation) of blood platelets (thrombocytes), which is the first phase of the formation of blood clots (thrombi). Such an inhibition may prevent the formation of blood clots and inhibit the development of new thrombi after a diagnosed thrombus.
Citrate stabilized ( 0.38% of sodium citrate, final concentration) venous blood from healthy testees is used, who have not used medicine for at least 8 days. Slight centrifugation (160×g for 10 minutes) results in PRP (blood plasma rich in platelets) which is pipetted. PPP (blood plasma poor in platelets) is obtained by an intense centrifugation (3000×g for 10 minutes) of the remaining blood. The light transmission is measured by the aggregometer (CHRONOLOG). PRP allows nearly no light transmitaaion, while PPP allows complete transmission of light. The PRP is placed in the aggregometer at 37° C. while being stirred by a magnet. Addition of a pro-aggregating substance causes the PRP to aggregate gradually and an increasing light transmission takes place at the same time. At complete aggregation a light transmission corresponding to PPP is obtained. Adnosine diphosphate (ADP) is used as pro-aggregating substance, said substance representing a basic biochemical mechanism for aggregation of blood platelets. The test substances are incubated for 3 minutes in PRP placed in the aggregometer at 37° C. during magnetic stirring. A predetermined positively aggregating dosage of adenosine diphosphate (ADP) (2 to 4 μM) is then added. […] A so-called IC50 -value (that is the concentration inhibiting the aggregation by 50% relative to the control aggregation) is calculated for each test substance by linear regression analysis (log concentration μM as constant ad abscissa and % inhibition as variable ad ordinate). The following known reference substances have been used: nitroglycerine (GTN), sodium nitroprusside (NNP) and SIN-1 (the active metabolite of molsidomine).

[2] = Maximum tolerable dose (MTD) study i.p.; format: in vivo, rat; settings: rat, in vivo, ip; intraperitoneal, rats
Experimental: (§1) Two tests were carried out on male rats, namely a determination of the "maximum tolerable dose" (MTD) and a test using multiple peroral doses. In addition, a LD50 test was carried out intravenously on mice.
(§2) In a MTD-test 10 animals were administered a dose of the substance once a day for a week, during which period the clinical and hematological parameters were recorded. When no signs of side effects appeared, the dose was increased in the following weeks until side effects appeared. The hemotological parameters measured were the following: the number of red and white blood cells, the number of blood platelets, the hemoglobin percentage, the hematocrit, and for the red blood cells also the average cell volume, the average cell hemoglobin content, and the average cell hemoglobin concentration. Furthermore, a differential count of the white blood cells was made.

[3] = system: male rats; test: Maximum tolerable dose (MTD) study i.p.; format: in vivo, rat; settings: i.p.
Experimental: as §1, §2

[4] = Maximum tolerable dose (MTD) study p.o.; as to Clinical observations: key: N.R.: nothing remarkable; as to Increase in weight: key: N.R.: nothing remarkable; format: in vivo, rat; settings: rat, in vivo, po; peroral, rats
Experimental: as §1, §2

[5] = system: male rats; test: Maximum tolerable dose (MTD) study p.o.; as to Clinical observations: key: N.R.: nothing remarkable; as to Increase in weight: key: N.R.: nothing remarkable; format: in vivo, rat; settings: p.o.
Experimental: as §1, §2

[6] = 10 mg/kg once a day for a week, relative to control
[7] = 20 mg/kg once a day for a week, relative to control
[8] = 20 mg/kg once a day for a week, relative to control, hydrochloride, 20 mg/kg
[9] = 40 mg/kg once a day for a week, relative to control

Compound: Cc1c(Cl)cccc1-[n+]1noc([NH-])n1 [Example 1, 3-(3-chloro-2-methylphenyl)-1,2,3,4-oxatriazole-5-imine hydrochloride]
- IC50 [1]: 320 nM
- MTD [2]: ~20 mg/kg
- Clinical observations [3, 6]: N.R.
- Hematological parameters [3, 6]: N:R
- Increase in weight [3, 6]: N.R.
- Increase in weight [3, 7]: reduced
- Clinical observations [3, 8]: a passing CNS effect, where the animals a few minutes after the administration seemed nervous and hyperactive
- Hematological parameters: neutrophilic granulocytes with toxic granulation [3, 8]: increased number of neutrophilic granulocytes and a toxic granulation in some cells
- Tolerability (in words) ([3]; rats, up to 20 mg/kg): tolerated with only minor side effects
- MTD [4]: 40 mg/kg
- Clinical observations [5, 6]: N.R.
- Hematological parameters [5, 6]: N.R.
- Increase in weight [5, 6]: N.R.
- Clinical observations [5, 7]: N.R.
- Hematological parameters [5, 7]: N.R.
- Increase in weight [5, 7]: N.R.
- Clinical observations [5, 9]: N.R.
- Hematological parameters: hemoglobin percentage (HGB) [5, 9]: reduced HGB
- Hematological parameters: red blood cells (RBC) [5, 9]: reduced RBC
- Increase in weight [5, 9]: N.R.
- Hematological parameters: white blood cells (WBC) ([5]; 40 mg/kg once a day for a week, relative to control, hydrochloride, 40 mg/kg): increased WBC; also recorded: increased content of white blood cells
- Signs of anemia ([5]; 40 mg/kg, after one week): signs of anemia
